Measurements taken from paper PMC10711279 (Frontiers in Pharmacology, 2023).

Key:
[1] = set-up: method as in Turner and Merlis, 1959; conditions: dose range 5–20 mg; ref Turner and Merlis, 1959; cited from earlier work
[2] = Blood plasma levels (LC-MS/MS) after DMT/harmine administration
Experimental: Blood samples were collected from the left antecubital vein at −30 (baseline), −15, 0, 15, 30, 45, 60, 90, 120, 180, 240, 300 and 360 min after the first DMT administration for analysis of blood plasma levels of harmine, DMT and the two major DMT metabolites 3-indole acetic acid (3-IAA) and N-methyl-tryptamine (NMT). […] Blood samples were immediately centrifuged for 10 min at 2000 RCF. Then, plasma was transferred to Eppendorf tubes, shock-frozen in liquid nitrogen (∼-196°C), and stored at −80°C until assayed.
For the sample preparation 200 µL of plasma were spiked with 50 µL internal standard (IS) mixture (40 ng/mL DMT-d6 and harmine-d3) and 50 µL methanol (MeOH). Proteins were precipitated by adding 400 µL of acetonitrile (ACN). The samples were shaken for 10 min and centrifuged for 5 min at 10,000 rpm. 350 μL of the supernatant was transferred into an auto-sampler vial, evaporated to dryness under a gentle stream of nitrogen at room temperature and reconstituted in 100 µL eluent-mixture (98:2, v/v). External calibrator and quality control (QC) samples were prepared accordingly, replacing the MeOH with a calibrator or QC solution mixtures. Calibrator and QC samples containing 3-IAA were prepared separately, replacing plasma with water. The calibration ranges were 0.5–500 ng/mL for DMT and DMT-N-oxide, 2.5–120 ng/mL for harmine, 1–80 ng/mL for harmol, 0.015–10 ng/mL for NMT and 35–3,000 ng/mL for 3-IAA.
Samples were analyzed on an ultra-high performance liquid chromatography (UHPLC) system (Thermo Fisher, San Jose, CA) coupled to a linear ion trap quadrupole mass spectrometer 5,500 (Sciex, Darmstadt, Germany). The mobile phases consisted of a mixture of water (eluent A) and ACN (eluent B), both containing 0.1% formic acid (v/v). Using a Kinetex C18 column 50 × 2.1 mm, 2.6 µm (Phenomenex, Aschaffenburg, Germany), the flow rate was set to 0.5 mL/min with the following gradient: starting conditions 98% eluent A, decreasing to 70% within 4 min, followed by a quick decrease to 5% within 1 min, holding for 0.5 min and returning to starting conditions for 1.5 min, resulting in a total runtime of 7 min. The mass spectrometer was operated in positive electrospray ionization mode with scheduled multiple reaction monitoring. The following transitions of precursor ions to product ions were selected as quantifier ions: DMT m/z 189→115, DMT-N-oxide m/z 205→117, harmine m/z 213→169, harmol m/z 199→131, NMT m/z 175→144 and 3-IAA m/z 176→103.

[3] = ref Vogt et al., 2023; cited from earlier work
[4] = in vivo; cited from earlier work
[5] = day 1, 250 mg oral harmine + 30 mg oral DMT
[6] = day 2, 250 mg oral harmine + 50 mg oral DMT
[7] = day 3, 150 mg buccal harmine + max 50 mg intranasal DMT
[8] = day 4, 200 mg buccal harmine + max 90 mg intranasal DMT

For `CN(C)CCc1c[nH]c2ccccc12` [DMT freebase, N,N-dimethyltryptamine], the “Effect of intranasal administration” value [1] is given as “ineffective”.

For `CN(C)CCc1c[nH]c2ccccc12` [DMT, N,N-dimethyltryptamine], the “Peak of the mean plasma concentrations” value [2, 5] was 27.9 ± 15.5 ng/mL, the “Peak of the mean plasma concentrations” value [2, 6] was 23.6 ± 11.9 ng/mL and the “Peak of the mean plasma concentrations” value [2, 7] was 23.9 ± 5.0 ng/mL. For the same compound, the “Peak of the mean plasma concentrations” value [2, 8] was 33.1 ± 9.3 ng/mL and the Plasma elimination half-life [3] was 5 to 10 min.

For `CCN(CC)C(=O)[C@@H]1C=C2c3cccc4[nH]cc(c34)C[C@H]2N(C)C1` [LSD], the Duration of action [4] is given as 10 to 12 h.

For `COc1ccc2c(c1)[nH]c1c(C)nccc12` [harmine], the “Peak of the mean plasma concentrations” value [2, 5] was 125.5 ± 111.2 ng/mL, the “Peak of the mean plasma concentrations” value [2, 6] was 104.8 ± 100.5 ng/mL and the “Peak of the mean plasma concentrations” value [2, 7] was 93.9 ± 33.5 ng/mL. The “Peak of the mean plasma concentrations” value [2, 8] was 132.4 ± 111.6 ng/mL and the Tmax ([2]; human, plasma, po) was 1 to 4.5 h.

In the case of `CN(C)CCc1c[nH]c2cccc(OP(=O)(O)O)c12` [psilocybin], the Duration of action [4] is given as 4 to 6 h.
